What was measured:
PC3 (prostate) = assay: In vitro cytotoxic activity (MTT) assay, PC3; type: cell-based; conditions: Homo sapiens; PC3 (prostate) cells, exposed for 96 hours, 50% inhibition of cell proliferation; read-out: Cytotoxicity activity IC50
Experimental: (§1) Compounds 1-16 were screened for their in vitro cytotoxic activity utilizing a 3-(4,5-dimethyl-thiazol-2-yl)-2,5-diphenyltetrazolium bromide (MTT) assay against selected cancer human cell lines consisting of PC3 (prostate), HCT116 (colon), A375 (melanoma), H1299 (lung), MIAPaCa-2 (pancreas), HL60 (leukemia), MCF7 (breast), MDA-MB-231 (breast) (T. Mosmann, J. Immunol. Meth., 1983, 65, 55-63). The cells were cultured at 37° C. in RMPI1640 medium supplemented with 10% fetal bovine serum, 50 IU/mL penicillin, and 50 μg/mL streptomycin in a 5% CO2 incubator. All cells were sub-cultured 3 times/week by trypsinisation. Viable cells were seeded and allowed to adhere for 12 hours before a test drug was added in 96-well plates at an initial density of 1.0×10^5 cells/mL. Tumor cell lines were separately exposed to various concentrations of the tested compounds followed by incubation at a temperature of 37° C. during 96 hours inside a medium of fresh RMPI 1640. Cells were subsequently incubated at 37° C. using MTT at 0.5 mg/mL during 4 hours. After removal of supernatant, formazan crystals were dissolved in isopropanol and the optical density was measured at 570 nm. CX-4945 was used as a positive control.

HCT116 (colon) = assay: In vitro cytotoxic activity (MTT) assay, HCT116; type: cell-based; conditions: Homo sapiens, HCT-116; HCT116 (colon) cells, exposed for 96 hours, 50% inhibition of cell proliferation; read-out: Cytotoxicity activity IC50
Experimental: as §1

A375 (melanoma) = assay: In vitro cytotoxic activity (MTT) assay, A375; type: cell-based; conditions: Homo sapiens, A-375; A375 (melanoma) cells, exposed for 96 hours, 50% inhibition of cell proliferation; read-out: Cytotoxicity activity IC50
Experimental: as §1

H1299 (lung) = assay: In vitro cytotoxic activity (MTT) assay, H1299; type: cell-based; conditions: Homo sapiens, NCI-H1299; H1299 (lung) cells, exposed for 96 hours, 50% inhibition of cell proliferation; read-out: Cytotoxicity activity IC50
Experimental: as §1

MIAPaCa-2 (pancreas) = assay: In vitro cytotoxic activity (MTT) assay, MIAPaCa-2; type: cell-based; conditions: Homo sapiens, MIA PaCa-2; MIAPaCa-2 (pancreas) cells, exposed for 96 hours, 50% inhibition of cell proliferation; read-out: Cytotoxicity activity IC50
Experimental: as §1

HL60 (leukemia) = assay: In vitro cytotoxic activity (MTT) assay, HL60; type: cell-based; conditions: Homo sapiens, HL-60; HL60 (leukemia) cells, exposed for 96 hours, 50% inhibition of cell proliferation; read-out: Cytotoxicity activity IC50
Experimental: as §1

MCF7 (breast) = assay: In vitro cytotoxic activity (MTT) assay, MCF7; type: cell-based; conditions: Homo sapiens; MCF7 (breast) cells, exposed for 96 hours, 50% inhibition of cell proliferation; read-out: Cytotoxicity activity IC50
Experimental: as §1

MDA-MB-231 (breast) = assay: In vitro cytotoxic activity (MTT) assay, MDA-MB-231; type: cell-based; conditions: Homo sapiens; MDA-MB-231 (breast) cells, exposed for 96 hours, 50% inhibition of cell proliferation; read-out: Cytotoxicity activity IC50
Experimental: as §1

[1] = target: T1, recombinant human CK2 (RRββ-holoenzyme) (Homo sapiens, UniProt P68400); assay: CK2 Kinase Assay (33P-ATP, substrate peptide RRRDDDSDDD); type: biochemical; conditions: final ATP concentration 15 μM, 10 min at 30° C., eight concentrations; read-out: protein kinase CK2 inhibition IC50
T1 construct: purchased Millipore
Experimental: CK2 Kinase Assay was conducted using the protocol as described in Pierre F. et al; J. Med. Chem. 2011, 54, 635-654. The tested compounds in aqueous solution were added at a volume of 10 μL to a reaction mixture comprising 10 μL of assay dilution buffer (ADB; 20 mM MOPS, pH 7.2, 25 mM β-glycerol phosphate, 5 mM EGTA, 1 mM sodium orthovanadate, and 1 mM dithiothreitol), 10 μL of substrate peptide (RRRDDDSDDD, dissolved in ADB at a concentration of 1 mM), 10 μL of recombinant human CK2 (RRββ-holoenzyme, 25 ng dissolved in ADB; Millipore). Reactions were initiated by the addition of 10 μL of ATP solution (90% 75 mMMgCl2, 75 μM ATP (final ATP concentration: 15 μM) dissolved in ADB; 10% [γ-33P] ATP (stock 1 mCi/100 μL; 3000 Ci/mmol (Perkin-Elmer) and maintained for 10 min at 30° C. The reactions were quenched with 100 μL of 0.75% phosphoric acid and then transferred to and filtered through a phosphor cellulose filter plate (Millipore). After washing each well five times with 0.75% phosphoric acid, the plate was dried under vacuum for 5 min and, following the addition of 15 μL of scintillation fluid to each well, the residual radioactivity was measured using a Wallac luminescence counter. The IC50 values were derived from eight concentrations of test inhibitors.

T1 sequence (P68400 whole entry): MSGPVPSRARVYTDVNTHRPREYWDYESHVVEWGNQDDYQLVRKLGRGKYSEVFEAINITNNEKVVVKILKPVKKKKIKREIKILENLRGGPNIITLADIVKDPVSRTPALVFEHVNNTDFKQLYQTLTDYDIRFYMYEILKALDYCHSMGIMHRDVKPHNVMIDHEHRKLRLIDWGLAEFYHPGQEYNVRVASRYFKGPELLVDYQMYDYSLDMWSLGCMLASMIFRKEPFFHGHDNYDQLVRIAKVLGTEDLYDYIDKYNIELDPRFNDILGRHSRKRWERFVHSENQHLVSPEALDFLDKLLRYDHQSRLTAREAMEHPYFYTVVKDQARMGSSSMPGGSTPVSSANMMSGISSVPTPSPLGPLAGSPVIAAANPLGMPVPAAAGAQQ
T1 sequence (P67870 whole entry partner): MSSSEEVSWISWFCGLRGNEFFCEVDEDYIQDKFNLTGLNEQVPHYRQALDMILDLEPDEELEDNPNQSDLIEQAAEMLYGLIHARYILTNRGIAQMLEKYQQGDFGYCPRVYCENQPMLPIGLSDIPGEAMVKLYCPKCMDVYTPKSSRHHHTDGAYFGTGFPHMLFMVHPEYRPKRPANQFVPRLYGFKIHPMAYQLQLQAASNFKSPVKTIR

IC50 [1]: 48 nM
Compound: O=C(O)c1n[nH]c2c1c(Nc1cccc(Cl)c1)nc1ccncc12 [Compound 1, 4-((3-chlorophenyl)amino)-1H-pyrazolo[4,3-c][1,6]naphthyridine-3-carboxylic acid]
IC50 (PC3 (prostate)): 2500 nM
IC50 (HCT116 (colon)): 1700 nM
IC50 (A375 (melanoma)): 3800 nM
IC50 (H1299 (lung)): 1900 nM
IC50 (MIAPaCa-2 (pancreas)): 1400 nM
IC50 (HL60 (leukemia)): 2900 nM
IC50 (MCF7 (breast)): 6300 nM
IC50 (MDA-MB-231 (breast)): 5800 nM

— patent US12024518B1, “Pyrazolo[4,3-C][1,6]naphthyridines as CK2 inhibitors” (KING FAISAL UNIVERSITY, priority 2023, dated 2024)
